Measured values from patent US20070099996A1, “Pharmaceutical compositions of acitretin” (priority 2003, published 2007).

Assays:
[1] = cited from earlier work
[2] = Comparative particle size distribution; assay type: physicochemical
Description: Comparative particle size distribution of unmilled acitretin, air-jet milled acitretin, oil-milled and wet milled solid dispersion of acitretin.

In the case of `COc1cc(C)c(/C=C/C(C)=C/C=C/C(C)=C/C(=O)O)c(C)c1C` [Acitretin], the Solubility in water [1] is listed as “practically insoluble”.

For `COc1cc(C)c(/C=C/C(C)=C/C=C/C(C)=C/C(=O)O)c(C)c1C` [Air-jet milled acitretin, acitretin], the “Particle size D10” value [2] was 2.13 microns, the “Particle size D50” value [2] was 5.51 microns and the “Particle size D90” value [2] was 14.48 microns.

In the case of `COc1cc(C)c(/C=C/C(C)=C/C=C/C(C)=C/C(=O)O)c(C)c1C` [Unmilled acitretin, acitretin], the “Particle size D10” value [2] was 11.14 microns, the “Particle size D50” value [2] was 39.59 microns and the “Particle size D90” value [2] was 105.0 microns.
